From patent publication US20220195666A1, “USE OF A PLURALITY OF SALT IONIC LIQUIDS IN THE PRETREATMENT OF BIOMASS” (priority 2020, published 2022)

Test: Thermal gravimetric analysis of the ILs and DSILs
Format: physicochemical
Details: TGA under nitrogen, 10° C./min
Procedure: Thermal behavior was determined using a Mettler Toledo Stare TGA/DSC1 unit (Mettler Toledo, Leicester, UK) under nitrogen. Samples between 3 and 10 mg were placed in alumina crucibles (70 μL) and heated from room temperature to 75° C. at a heating rate of 10° C./min. An isotherm at 75° C. was maintained for 30 min to eliminate all volatiles, if any. After the isothermal step, the temperature was ramped to 800° C. at a heating rate of 10° C./min. The data was analyzed using STARe Evaluation software.

In order of rising “T5% (decomposition temperature of 5% sample)” value:
1. C[N+](C)(C)CCO.NCCCC[C@H](N)C(=O)[O-] [[Ch][Lys], cholinium lysinate]  155.9 °C
2. CC(=O)[O-].C[N+](C)(C)CCO [[Ch][Ace], cholinium acetate]  173.1 °C
3. CCCCCCCCCCCCCCCC(=O)[O-].C[N+](C)(C)CCO [[Ch][Pal], cholinium palmitate]  177.7 °C
4. CCCCCCCC(=O)[O-].C[N+](C)(C)CCO [[Ch][Oct], cholinium octanoate]  180.7 °C

In order of rising “T50% (decomposition temperature of 50% sample)” value:
1. CCCCCCCC(=O)[O-].C[N+](C)(C)CCO [[Ch][Oct], cholinium octanoate]  209.5 °C
2. CC(=O)[O-].C[N+](C)(C)CCO [[Ch][Ace], cholinium acetate]  211.4 °C
3. C[N+](C)(C)CCO.NCCCC[C@H](N)C(=O)[O-] [[Ch][Lys], cholinium lysinate]  218.1 °C
4. CCCCCCCCCCCCCCCC(=O)[O-].C[N+](C)(C)CCO [[Ch][Pal], cholinium palmitate]  225.3 °C
